Results taken from ChEMBL document CHEMBL5532670, “Discovery of Tetrahydropyrazolopyrazine Derivatives as Potent and Selective MYT1 Inhibitors for the Treatment of Cancer” (J Med Chem, 2024).

How the values were obtained:
in vivo [1] = conditions: Sprague-Dawley, rat, iv, 1 mg/kg
[2] = MRT (0 to t) in CD-1 mouse at 1 mg/kg, iv measured after 24 hrs; format: ADME, organism-based; conditions: in vivo
in vitro [3] = conditions: mouse, hepatocytes
[4] = AUC (0 to t) in CD-1 mouse at 10 mg/kg, po measured after 24 hrs; format: ADME, organism-based; conditions: in vivo
[5] = Tmax in CD-1 mouse at 10 mg/kg, po measured after 24 hrs; format: ADME, organism-based; conditions: in vivo
in vivo [6] = conditions: CD-1, mouse, iv, 1 mg/kg
[7] = Cmax in CD-1 mouse at 10 mg/kg, po measured after 24 hrs; format: ADME, organism-based; conditions: in vivo
[8] = Oral bioavailability in Sprague-Dawley rat at 10 mg/kg measured after 24 hrs; format: ADME, organism-based; conditions: in vivo
in vitro [9] = conditions: human, Caco-2
[10] = MRT (0 to t) in Sprague-Dawley rat at 1 mg/kg, iv measured after 24 hrs; format: ADME, organism-based; conditions: in vivo
[11] = Cmax in Sprague-Dawley rat at 10 mg/kg, po measured after 24 hrs; format: ADME, organism-based; conditions: in vivo
in vivo [12] = conditions: CD-1, mouse, iv, 1 mg/kg; remark: listed apart in the source
[13] = Oral bioavailability in CD-1 mouse at 10 mg/kg measured after 24 hrs; format: ADME, organism-based; conditions: in vivo
in vivo [14] = conditions: Sprague-Dawley, rat, iv, 1 mg/kg; remark: listed apart in the source
[15] = Tmax in Sprague-Dawley rat at 10 mg/kg, po measured after 24 hrs; format: ADME, organism-based; conditions: in vivo
[16] = Drug concentration in mouse plasma assessed as free fraction administered for 21 days and measured after 8 hrs post dose; format: ADME; conditions: 504 h, time 21 day
[17] = Cmax in CD-1 mouse at 30 mg/kg, po measured after 24 hrs; format: ADME, organism-based; conditions: in vivo
[18] = Cmax in Sprague-Dawley rat at 20 mg/kg, po measured after 24 hrs; format: ADME, organism-based; conditions: in vivo
[19] = Oral bioavailability in CD-1 mouse at 30 mg/kg measured after 24 hrs; format: ADME, organism-based; conditions: in vivo
[20] = Tmax in CD-1 mouse at 30 mg/kg, po measured after 24 hrs; format: ADME, organism-based; conditions: in vivo
[21] = Oral bioavailability in Sprague-Dawley rat at 20 mg/kg measured after 24 hrs; format: ADME, organism-based; conditions: in vivo
[22] = AUC (0 to t) in CD-1 mouse at 30 mg/kg, po measured after 24 hrs; format: ADME, organism-based; conditions: in vivo
[23] = Tmax in Sprague-Dawley rat at 20 mg/kg, po measured after 24 hrs; format: ADME, organism-based; conditions: in vivo
in vivo [24] = conditions: Sprague-Dawley, rat, po, 5 mg/kg
in vivo [25] = conditions: Sprague-Dawley, rat, po, 5 mg/kg; remark: listed apart in the source
in vivo [26] = conditions: CD-1, mouse, po, 5 mg/kg
in vivo [27] = conditions: CD-1, mouse, po, 5 mg/kg; remark: listed apart in the source
in vivo [28] = conditions: Sprague-Dawley, rat, po, 5 mg/kg; remark: listed apart in the source
[29] = AUC (0 to t) in Sprague-Dawley rat at 5 mg/kg, po measured after 24 hrs; format: ADME, organism-based; conditions: in vivo
[30] = AUC (0 to t) in CD-1 mouse at 5 mg/kg, po measured after 24 hrs; format: ADME, organism-based; conditions: in vivo
in vivo [31] = conditions: CD-1, mouse, po, 5 mg/kg; remark: listed apart in the source

Compound `Cc1ccc(O)c(C)c1-n1c(N)c(C(=O)N2CCn3nccc3C2)c2nc(C)c(C)nc21` has a Vd at 24 h (in vivo [1]) of 1.2 L/kg, an MRT last at 24 h [2] of 6.6 min and a CLhep predicted (in vitro [3]) of 85.4 mL/min/kg. For the same compound, the AUC(0-t) at 24 h [4] was 330 ng·h/mL, the Tmax [5] was 15 min and the Vd at 24 h (in vivo [6]) was 0.99 L/kg. It also gave a Cmax [7] of 902 ng/mL, a bioavailability [8] of 50.9% and a Papp A→B at 2 h (in vitro [9]) of 1.48 ×10⁻⁶ cm/s. The MRT last at 24 h [10] was 24.6 min, the Cmax [11] was 1410 ng/mL and the clearance at 24 h (in vivo [12]) was 149 mL/min/kg. For the same compound, the bioavailability [13] was 29.3%, the clearance at 24 h (in vivo [14]) was 46.8 mL/min/kg and the Tmax [15] was 15 min.

For `Cc1ccc(O)c(C)c1-n1c(N)c(C(=O)N2CCn3nccc3C2)c2nc(C3CC3)c(C)nc21`, the Vd at 24 h (in vivo [1]) was 1.4 L/kg, the MRT last at 24 h [2] was 10.2 min and the CLhep predicted (in vitro [3]) was 83.5 mL/min/kg. The “Cp(f)” value [16] was 60.7 nM, the Vd at 24 h (in vivo [6]) was 1.3 L/kg and the Cmax [17] was 1800 ng/mL. The Cmax [18] was 1780 ng/mL, the Papp A→B at 2 h (in vitro [9]) was 1 ×10⁻⁶ cm/s and the bioavailability [19] was 55.8%. The MRT last at 24 h [10] was 28.2 min, the clearance at 24 h (in vivo [12]) was 122 mL/min/kg and the clearance at 24 h (in vivo [14]) was 49.1 mL/min/kg. The Tmax [20] was 15 min, the bioavailability [21] was 55.9% and the AUC(0-t) at 24 h [22] was 2310 ng·h/mL. For the same compound, the Tmax [23] was 40.2 min.

`Cc1cc2c(C(N)=O)c(N)n(-c3c(C)ccc(O)c3C)c2nc1C` [LUNRESERTIB] showed a Tmax at 24 h (in vivo [24]) of 15 min, a Vd at 24 h (in vivo [1]) of 1.4 L/kg and a bioavailability at 24 h (in vivo [25]) of 78%. The MRT last at 24 h [2] was 23.4 min, the bioavailability at 24 h (in vivo [26]) was 55.8% and the Tmax at 24 h (in vivo [27]) was 24 min. The CLhep predicted (in vitro [3]) was 79.4 mL/min/kg, the “Cp(f)” value [16] was 39.3 nM and the Vd at 24 h (in vivo [6]) was 2.3 L/kg. The Papp A→B at 2 h (in vitro [9]) was 11 ×10⁻⁶ cm/s, the Cmax at 24 h (in vivo [28]) was 1360 ng/mL and the MRT last at 24 h [10] was 33.6 min. The AUC(0-t) at 24 h [29] was 1720 ng·h/mL, the clearance at 24 h (in vivo [12]) was 85.7 mL/min/kg and the clearance at 24 h (in vivo [14]) was 37.6 mL/min/kg. It also gave an AUC(0-t) at 24 h [30] of 539 ng·h/mL and a Cmax at 24 h (in vivo [31]) of 511 ng/mL.
